# Experimental data taken from article PMC9316855 (Molecules, 2022).
# Like-named read-outs stand apart in the source and are kept apart here.
# Legend:
# [1] = 24 h; cited from earlier work
# [2] = 4 h; cited from earlier work
smiles,measurement,setting,value
"CC(C)C[C@H](NC(=O)[C@H](CC(=O)O)NC(=O)CNC(=O)[C@H](CCCNC(=N)N)NC(=O)[C@H](CC(C)C)NC(=O)[C@H](CC(N)=O)NC(=O)[C@@H]1CCCN1C(=O)[C@@H](NC(=O)[C@H](C)NC(=O)[C@@H](N)CC(N)=O)C(C)C)C(=O)N[C@@H](CCC(N)=O)C(=O)N[C@H](C(=O)N[C@@H](CC(C)C)C(=O)N[C@@H](C)C(=O)N[C@@H](CCC(N)=O)C(=O)N[C@@H](CCCCN)C(=O)N[C@H](C(=O)N[C@@H](C)C(=O)N[C@@H](CCCNC(=N)N)C(=O)N[C@H](C(=O)O)[C@@H](C)O)C(C)C)C(C)C [Compound 13, H2N-^1NAVPNLRGDLQVLAQKVAR^20T-OH]",peptide remaining intact in rat serum,24 h,almost completely degraded
same,peptide remaining intact in rat serum,48 h,undetected
same,peptide remaining in human plasma,[1],> 75%
same,peptide remaining intact in mouse serum,[2],50%
